Experimental data from the NIST ThermoML archive (doi:10.1007/s10765-006-0047-0).

What was measured:
[1] = xn = mol fraction of the nth substance listed; settings: 298.15 K, 101 kPa, Liquid, Sing-around technique in a fixed-path interferometer
[2] = 298.15 K, 101.33 kPa, Liquid; for mass density: Pycnometric method; for speed of sound: Sing-around technique in a fixed-path interferometer

CCCN [propan-1-amine] + COCCO
[1]
Settings | speed of sound [m/s]
x2 = 0.0036 | 1215.3
x2 = 0.0101 | 1216.4
x2 = 0.0272 | 1218.3
x2 = 0.047 | 1221.7
x2 = 0.0831 | 1227.4
x2 = 0.1175 | 1232.5
x2 = 0.1521 | 1238.8
x2 = 0.1977 | 1247
x2 = 0.2378 | 1254
x2 = 0.2982 | 1265.6
x2 = 0.3629 | 1276.6
x2 = 0.4188 | 1285.8
x2 = 0.474 | 1294.1
x2 = 0.5181 | 1299.6
x2 = 0.5862 | 1307.8
x2 = 0.6459 | 1314.6
x2 = 0.7102 | 1321.5
x2 = 0.799 | 1329.7
x2 = 0.8253 | 1331.6
x2 = 0.8642 | 1334.2
x2 = 0.8918 | 1336.2
x2 = 0.908 | 1338
x2 = 0.9316 | 1339.5
x2 = 0.9621 | 1341.5
x2 = 0.9824 | 1342.9
x2 = 0.9932 | 1343.4
x2 = 0.9989 | 1343.5

COCCOCCO [2-(2-methoxyethoxy)ethanol]
[2]
Settings | mass density [kg/m3] | speed of sound [m/s]
– | 1016.43 | 1417.2

COCCOCCO [2-(2-methoxyethoxy)ethanol] + CCCN
[1]
Settings | speed of sound [m/s]
x1 = 0.0055 | 1215.3
x1 = 0.0112 | 1217
x1 = 0.024 | 1220.2
x1 = 0.0454 | 1225.5
x1 = 0.0749 | 1233.3
x1 = 0.0948 | 1238.6
x1 = 0.1292 | 1249.1
x1 = 0.1834 | 1264.6
x1 = 0.2523 | 1284.5
x1 = 0.309 | 1301.5
x1 = 0.3831 | 1320.8
x1 = 0.4484 | 1337
x1 = 0.5041 | 1349.4
x1 = 0.5603 | 1360.6
x1 = 0.6353 | 1373.2
x1 = 0.6792 | 1380
x1 = 0.7209 | 1385.9
x1 = 0.7775 | 1392.7
x1 = 0.8121 | 1397.5
x1 = 0.8725 | 1404.9
x1 = 0.912 | 1408.8
x1 = 0.9332 | 1411.2
x1 = 0.9535 | 1413.1
x1 = 0.9852 | 1416.5
x1 = 0.9983 | 1417.1

CCOCCOCCO [3,6-dioxa-1-octanol] + CCCN
[1]
Settings | speed of sound [m/s]
x1 = 0.0021 | 1215.3
x1 = 0.0048 | 1215.4
x1 = 0.0177 | 1218.7
x1 = 0.0374 | 1223.3
x1 = 0.0647 | 1230.5
x1 = 0.0909 | 1236.8
x1 = 0.1313 | 1247.7
x1 = 0.1669 | 1257.2
x1 = 0.2491 | 1278.4
x1 = 0.3135 | 1293.9
x1 = 0.3898 | 1310.7
x1 = 0.4519 | 1322.7
x1 = 0.4879 | 1329.1
x1 = 0.5348 | 1337.5
x1 = 0.5888 | 1344.5
x1 = 0.6314 | 1349.7
x1 = 0.6808 | 1355.5
x1 = 0.7314 | 1359.9
x1 = 0.7778 | 1363.7
x1 = 0.8381 | 1367.3
x1 = 0.876 | 1370
x1 = 0.9121 | 1371.4
x1 = 0.9343 | 1373.1
x1 = 0.9624 | 1374.6
x1 = 0.9887 | 1375.9
x1 = 0.9971 | 1376.8

CCOCCOCCO [3,6-dioxa-1-octanol]
[2]
Settings | mass density [kg/m3] | speed of sound [m/s]
– | 983.84 | 1377.3

CCCCOCCOCCOCCCC [5,8,11-trioxapentadecane] + CCCN
[1]
Settings | speed of sound [m/s]
x1 = 0.0033 | 1215.3
x1 = 0.0114 | 1215.5
x1 = 0.033 | 1217.3
x1 = 0.0476 | 1218.4
x1 = 0.0724 | 1221
x1 = 0.0955 | 1222.8
x1 = 0.139 | 1227.3
x1 = 0.1781 | 1231.7
x1 = 0.2413 | 1237.2
x1 = 0.3004 | 1242
x1 = 0.3569 | 1245.8
x1 = 0.4169 | 1249.5
x1 = 0.4689 | 1251.9
x1 = 0.5355 | 1255.2
x1 = 0.5925 | 1258.2
x1 = 0.6493 | 1260.8
x1 = 0.6979 | 1262.9
x1 = 0.7548 | 1264.7
x1 = 0.8153 | 1266.6
x1 = 0.8686 | 1268.2
x1 = 0.9 | 1269
x1 = 0.9241 | 1269.5
x1 = 0.9526 | 1269.9
x1 = 0.977 | 1270.1
x1 = 0.991 | 1270.3

CCCN [propan-1-amine]
[2]
Settings | mass density [kg/m3] | speed of sound [m/s]
– | 712.25 | 1215.2

CCOCCOCCOCC [diethylene glycol diethyl ether]
[2]
Settings | mass density [kg/m3] | speed of sound [m/s]
– | 902.76 | 1241.9
